Several values for one entry are separate records, joined by “and”; a condition that tells them apart may be missing. Equal values may be shown once.
Legend:
Conditions in all cases: incubation time: 72 h
CAL-148 [1] = test: normalised viability (% of control), CellTiter-Blue; higher = more viable cells (about 100 = DMSO control)
Procedure: (§1)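 DSRT, CellTiter-Blue viability, 72 h incubation. Signal is normalised to DMSO and benzethonium chloride controls. Value is the normalised response at dose 6.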

CAL-51 [2] = test: as above
Procedure: as §1

CAL-85-1 [3] = test: as above
Procedure: as §1

DU-4475 [4] = test: as above
Procedure: as §1

HDQ-P1 [5] = test: as above
Procedure: as §1

MDA-MB-453 [6] = test: as above
Procedure: as §1

BT-474 = test: normalised response (% of control), CellTiter-Glo; higher = more viable cells (100 = DMSO, 0 = benzethonium chloride kill control)
Summary of the method: (§2)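 For each plate, 0.1 % DMSO was set to 100 and a positive kill control to 0. Breast cancer cell lines (20 µl suspension) were seeded into 384-well plates already holding compound at 5 concentrations in 10-fold steps over a 10,000-fold range chosen per compound, and incubated for 72 h. CellTox Green fluorescence at 485/520 nm was read before CellTiter-Glo luminescence, which followed 10 min at room temperature. Each value is the normalised signal at one concentration.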

BT-549 [7] = test: as above
Summary of the method: as §2

CAL-120 [8] = test: as above
Summary of the method: as §2

CAL-148 [9] = test: as above
Summary of the method: as §2

CAL-51 [10] = test: as above
Summary of the method: as §2

CAL-85-1 [11] = test: as above
Summary of the method: as §2

DU-4475 [12] = test: as above
Summary of the method: as §2

HCC1143 [13] = test: as above
Summary of the method: as §2

HCC1599 [14] = test: as above
Summary of the method: as §2

HCC1937 [15] = test: as above
Summary of the method: as §2

HDQ-P1 [16] = test: as above
Summary of the method: as §2

Hs578T [17] = test: as above
Summary of the method: as §2

MCF-10A = test: as above
Summary of the method: as §2

MDA-MB-231 [18] = test: as above
Summary of the method: as §2

MDA-MB-436 [19] = test: as above
Summary of the method: as §2

MDA-MB-453 [20] = test: as above
Summary of the method: as §2

MDA-MB-468 [21] = test: as above
Summary of the method: as §2

MFM-223 [22] = test: as above
Summary of the method: as §2

SK-BR-3 [23] = test: as above
Summary of the method: as §2

BT-549 [24] = test: normalised viability (% of control), CellTiter-Blue; higher = more viable cells (100 = DMSO, 0 = benzethonium chloride kill control)
Procedure: (§3)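 DSRT, CellTiter-Blue viability, 72 h incubation. Signal is normalised to DMSO and benzethonium chloride controls. Value is the normalised response at dose 1.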

CAL-120 [25] = test: as above
Procedure: as §3

CAL-148 [26] = test: as above
Procedure: as §3

CAL-51 [27] = test: as above
Procedure: as §3

CAL-85-1 [28] = test: as above
Procedure: as §3

DU-4475 [29] = test: as above
Procedure: as §3

HCC1143 [30] = test: as above
Procedure: as §3

HCC1599 [31] = test: as above
Procedure: as §3

HCC1937 [32] = test: as above
Procedure: as §3

HDQ-P1 [33] = test: as above
Procedure: as §3

Hs578T [34] = test: as above
Procedure: as §3

MDA-MB-231 [35] = test: as above
Procedure: as §3

MDA-MB-436 [36] = test: as above
Procedure: as §3

MDA-MB-453 [37] = test: as above
Procedure: as §3

MDA-MB-468 [38] = test: as above
Procedure: as §3

MFM-223 [39] = test: as above
Procedure: as §3

SK-BR-3 [40] = test: as above
Procedure: as §3

Compound `C/C(=C\c1csc(C)n1)[C@@H]1C[C@@H]2O[C@]2(C)CCC[C@H](C)[C@H](O)[C@@H](C)C(=O)C(C)(C)[C@@H](O)CC(=O)N1` [Ixabepilone] (30 nM) has a normalised viability (CAL-148 [1]) of 99.2%, a normalised viability (CAL-51 [2]) of 103% and a normalised viability (CAL-85-1 [3]) of 85%. The normalised viability (DU-4475 [4]) was 88.9%, the normalised viability (HDQ-P1 [5]) was 71.6% and the normalised viability (MDA-MB-453 [6]) was 102%.
`C=CCn1c(=O)c2cnc(Nc3ccc(N4CCN(C)CC4)cc3)nc2n1-c1cccc(C(C)(C)O)n1` [MK1775] (300 nM) gave a normalised viability (CAL-148 [1]) of 45.3%, a normalised viability (CAL-51 [2]) of 62.9% and a normalised viability (CAL-85-1 [3]) of 66.6%. For the same compound, the normalised viability (DU-4475 [4]) was 68.7%, the normalised viability (HDQ-P1 [5]) was 49.3% and the normalised viability (MDA-MB-453 [6]) was 60%.
`CN(Cc1cnc2nc(N)nc(N)c2n1)c1ccc(C(=O)N[C@@H](CCC(=O)O)C(=O)O)cc1` [Methotrexate] (300 nM) showed a normalised viability (CAL-148 [1]) of 66.8%, a normalised viability (CAL-51 [2]) of 48.6% and a normalised viability (CAL-85-1 [3]) of 68.7%. It also gave a normalised viability (DU-4475 [4]) of 110%, a normalised viability (HDQ-P1 [5]) of 69% and a normalised viability (MDA-MB-453 [6]) of 95.2%.
`COc1c2occc2cc2ccc(=O)oc12` [Methoxsalen] (300 nM) gave a normalised viability (CAL-148 [1]) of 114%, a normalised viability (CAL-51 [2]) of 104% and a normalised viability (CAL-85-1 [3]) of 107%. For the same compound, the normalised viability (DU-4475 [4]) was 111%, the normalised viability (HDQ-P1 [5]) was 88.7% and the normalised viability (MDA-MB-453 [6]) was 99.9%.
With `CO[C@@H]1[C@H](N(C)C(=O)c2ccccc2)C[C@H]2O[C@]1(C)n1c3ccccc3c3c4c(c5c6ccccc6n2c5c31)C(=O)NC4` [Midostaurin] (300 nM) the normalised viability (CAL-148 [1]) was 106%, the normalised viability (CAL-51 [2]) was 28.9% and the normalised viability (CAL-85-1 [3]) was 86.6%. The normalised viability (DU-4475 [4]) was 76%, the normalised viability (HDQ-P1 [5]) was 53.6% and the normalised viability (MDA-MB-453 [6]) was 65.5%.
`CO[C@@]12[C@H](COC(N)=O)C3=C(C(=O)C(C)=C(N)C3=O)N1C[C@@H]1N[C@@H]12` [Mitomycin C] (300 nM) showed a normalised viability (CAL-148 [1]) of 105%, a normalised viability (CAL-51 [2]) of 102% and a normalised viability (CAL-85-1 [3]) of 98.7%. The normalised viability (DU-4475 [4]) was 86%, the normalised viability (HDQ-P1 [5]) was 83.7% and the normalised viability (MDA-MB-453 [6]) was 110%.
With `O=C(CCCCCCC(=O)Nc1ccccc1)NO` [Vorinostat] (1 nM) the normalised response (BT-474) was 93.1%, the normalised response (BT-549 [7]) was 108% and the normalised response (CAL-120 [8]) was 95.9%. For the same compound, the normalised response (CAL-148 [9]) was 102%, the normalised response (CAL-51 [10]) was 80.8% and the normalised response (CAL-85-1 [11]) was 104%. It also gave a normalised response (DU-4475 [12]) of 98.4%, a normalised response (HCC1143 [13]) of 91.1% and a normalised response (HCC1599 [14]) of 94.1%. It also gave a normalised response (HCC1937 [15]) of 99%, a normalised response (HDQ-P1 [16]) of 104% and a normalised response (Hs578T [17]) of 97.5%. The normalised response (MCF-10A) was 92.1%, the normalised response (MDA-MB-231 [18]) was 94.8% and the normalised response (MDA-MB-436 [19]) was 98.3%. It also gave a normalised response (MDA-MB-453 [20]) of 97.9%, a normalised response (MDA-MB-468 [21]) of 96% and a normalised response (MFM-223 [22]) of 102%. The normalised response (SK-BR-3 [23]) was 88%, the normalised viability (BT-549 [24]) was 94.4% and 117% and the normalised viability (CAL-120 [25]) was 83.4% and 95.8%. For the same compound, the normalised viability (CAL-148 [26]) was 89.8% and 101%, the normalised viability (CAL-51 [27]) was 103% and 96% and the normalised viability (CAL-85-1 [28]) was 91.5% and 104%. The normalised viability (DU-4475 [29]) was 100% and 106%, the normalised viability (HCC1143 [30]) was 94.7% and 100% and the normalised viability (HCC1599 [31]) was 97.8% and 94.4%. The normalised viability (HCC1937 [32]) was 102% and 89.7%, the normalised viability (HDQ-P1 [33]) was 84.8% and 99.5% and the normalised viability (Hs578T [34]) was 108% and 97.3%. For the same compound, the normalised viability (MDA-MB-231 [35]) was 89.6% and 94.1%, the normalised viability (MDA-MB-436 [36]) was 101% and 100% and the normalised viability (MDA-MB-453 [37]) was 106%. For the same compound, the normalised viability (MDA-MB-468 [38]) was 109%, the normalised viability (MFM-223 [39]) was 90% and 100% and the normalised viability (SK-BR-3 [40]) was 89.7% and 91.5%.

Source: the supplement of paper PMC4862054
